Experimental data published in US11458153B2, “Drug delivery composition comprising a self-assembled gelator” (The Brigham and Women's Hospital, Inc., priority 2008, dated 2022).
“Also recorded” adds a separate entry of the source.

Columns and labels:
[1] = Gelation studies with Apn-based prodrug gelators in water and organic solvents; assay type: physicochemical; design: key to Gelation ability: G = gel; P = precipitate; S = soluble; I = insoluble
Description: Gelation Studies with Prodrug-Based Gelators. Gelation abilities of Apn based amphiphilic prodrugs have been investigated thoroughly in a wide range of solvents. For detailed gelation results, see Table 1, below). Typically, the required amount of gelator was placed in a glass vial and with an appropriate solvent. […] The resulting solution was slowly cooled to room temperature and gelation was visually observed. […] Despite of prolonged heating Apn-11-CH3 was not soluble in water. […] In addition, Apn-7-COOH is soluble in basic solutions (pH is more than 8).
All gels were opaque in nature and stable for several weeks.
Preparation of Gels. Typically, gelator (0.1-5 mg) and required solvent (0.1-1 mL) were placed into a 2 mL scintillation vial, which was then sealed with a screw cap. The vial was heated with shaking until the solid was completely dissolved.

[2] = target: T1, lipase (Lipolase 100L, Type EX) (Thermomyces lanuginosus, UniProt O59952); assay: Enzyme-triggered hydrogel degradation and drug release; assay type: in vitro ADME
T1 construct: purchased Novozymes through Brenntag North America Lipolase 100L, Type EX
T1 sequence (O59952 23-291): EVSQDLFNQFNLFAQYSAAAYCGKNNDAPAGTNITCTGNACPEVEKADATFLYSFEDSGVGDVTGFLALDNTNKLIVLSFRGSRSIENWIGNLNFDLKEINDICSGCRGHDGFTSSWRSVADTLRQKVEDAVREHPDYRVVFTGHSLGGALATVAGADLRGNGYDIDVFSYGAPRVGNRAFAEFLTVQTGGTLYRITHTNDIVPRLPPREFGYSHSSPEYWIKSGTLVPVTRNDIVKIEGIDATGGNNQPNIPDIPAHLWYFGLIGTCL
Description: Encapsulation and release of curcumin was previously studied by the Ultra-Violet absorbance spectroscopy (λmax at 424 nm). Absorbance spectrum of modified Apn-7-COOH was similar to that of Apn (FIG. 6B). In this instance, enzyme-triggered single and multiple drug delivery has been carried out using two sets of hydrogel samples, i.e., hydrogels of Apn-7-COOH and Apn-8-Apn with and without curcumin. In the first set, lipase (Lipolase 100L, Type EX, lipase units 100 KLU/g) was added to the preformed hydrogel of Apn-7-COOH (2 wt %) and kept it at 37° C. which is lower than gel melting temperature. It was anticipated that lipase (esterase) would hydrolyze the ester bond of prodrug-based gelator (Apn-7-COOH) to release acetaminophen and dicarboxylic acid as the hydrogel degrades. As expected, after 48 hours the gel completely degraded and became a clear solution.
To test this further, and examine multiple (two) drugs delivery (FIGS. 6A-6E), curcumin was encapsulated in the hydrogel of Apn-7-COOH (2 wt %) and to that lipase was added and kept it at 37° C. Absorbance spectra were recorded on aliquots which were collected (after the addition of enzyme to the hydrogel) at regular intervals (FIG. 6C). […] The concentration of the enzyme used in these in vitro experiments is higher than physiological concentration of esterases (for example, physiological concentration of cholesterol esterase is 7 U/ml).
Increasing either concentration of enzyme or incubation temperature to 45° C. doubles the drug release rate, which was correlating with previous findings.
To analyze the gel degradation mechanism, another prodrug Apn-5-ether-COOH was synthesized (FIG. 2), where hydrocarbon chain (which is bearing terminal carboxylic acid) was connected to the acetaminophen through an ether bond (C—O—C) to prevent the esterolytic cleavage by lipase.

[3] = system: mesenchymal stem cells (MSCs); assay: MSC adipogenic differentiation, Oil Red O staining; assay type: cell-based, human; details: 250 μM, 23 days of induction
Description: Unlike typical fibroblast cell lines used for toxicity screening, cultured mesenchymal stem cells are highly sensitive to the presence of soluble factors and can often loose their capacity for multi-lineage differentiation or differentiate into non-desired lineages depending on the culture conditions. To examine the impact of the acetaminophen amphiphilic prodrugs on multi-lineage differentiation of MSCs, cells were treated with adipogenic and osteogenic induction media in presence of amphiphiles followed by respective colorimetric histological staining.
Adipogenic Differentiation. MSCs were seeded in the wells of 24 well plates, and were culture in MSC expansion media until they reach 90% confluence (note: in control samples there was no amphiphile present, whereas in experimental samples 250 μM of Apn-based amphiphile was present). Adipogenic differentiation was induced by culturing the cells for 23 days in adipogenic induction media (from Lonza—MSCs Adipogenic Single Quote kit containing h-Insulin (recombinant), L-Glutamine, Dexamethasone, Indomethacin, IBMX (3-isobuty-1-methyl-xanthine), Pen/Strep) and adipogenic maintenance media (from Lonza—MSCs Adipogenic Single Quote kit containing h-Insulin (recombinant), L-Glutamine, Pen/Strep). […] Adipogenesis was evaluated by Oil Red O staining. Following aspiration of the media, cells were washed once with PBS, and fixed in PBS with 3.7% formaldehyde for 30 min at room temperature. Following fixation cells were rinsed with distilled water for a few minutes, and incubated with isopropanol containing an Oil Red O working solution (prepared by diluting 30 mL of 0.5% isopropanol/Oil Red O solution with 20 mL of distilled water). After 45 minutes culture well were rinsed twice with distilled water and 1 mL of hematoxylin was added to each well for 1 minute followed by aspiration and washing with distilled water. The wells were viewed using an inverted phase contrast microscope.

**Q.** Which results are given for `CC(=O)Nc1ccc(OC(=O)CCCCCCC(=O)O)cc1` [Apn-7-COOH]?
**A.** solubility in basic solutions ([1]; pH is more than 8): soluble; Gelation ability ([1]; solvent chloroform): S; Gelation ability ([1]; solvent ethanol): S; Gelation ability ([1]; solvent ethyl acetate): I; Gelation ability ([1]; solvent isopropanol): I; Gelation ability ([1]; solvent methanol): S; Gelation ability ([1]; solvent t-butanol): I; Gelation ability ([1]; solvent water): G; minimum gelation concentration ([1]; solvent water): 0.4 wt/v %; gelation in water (in words) ([1]; water / aqueous solutions): forms excellent gels; time after which absorbance of released curcumin did not increase ([2]; curcumin released from degradation of hydrogel): 24 h; time of first aliquots showing curcumin absorption maxima (425 nm) ([2]; curcumin-encapsulated hydrogel 2 wt %, lipase, 37° C.): 4 h; burst release of curcumin ([2]; curcumin-encapsulated hydrogel 2 wt %, lipase, 37° C., absorbance maxima vs time): absence of burst release; products found by thin-layer chromatography after gel degradation ([2]; hydrogel 2 wt %, lipase, 37° C., 48 hours): acetaminophen and α,ω-dicarboxylicacid were generated; time after which the gel completely degraded ([2]; preformed hydrogel 2 wt %, lipase added, 37° C.): 48 h; adipogenic differentiation, Oil Red O (ORO) staining [3]: robust capacity; also recorded: equally stained for ORO
